This note sets out measurements from US20200009247A1, “DRUG COMBINATIONS” (ASTEX PHARMACEUTICALS, INC., priority 2013, published 2020).

In brackets after ≈: the same amount, converted by molar mass. Where two headings read alike, the source gives them in different places.

Data set [1] concerns DNA methylation (CMV-EE210 cell line, silenced GFP transgene). In words: cell-based green fluorescent protein (GFP) assay for demethylating activity. Conditions: concentration at which GFP expression level is reduced from g3 to g1/2; read-out: GFP50. Here is the method:
The demethylating activity of the compounds was tested in a cell-based green fluorescent protein (GFP) assay. In the assay, a decrease in methylation resulting from exposure to a methylation inhibitor leads to GFP expression, and is readily scored.
The CMV-EE210 cell line containing the epigenetically silenced GFP transgene was used to assay for reactivation of GFP expression by flow cytometry. CMV-EE210 was made by transfecting NIH 3T3 cells with the pTR-UF/UF1/UF2 plasmid, which contained pBS(+) (Stratagene, Inc.) with a cytomegalovirus (CMV) promoter driving a humanized GFP gene adapted for expression in mammalian cells. After transfection, high-level GFP expressing cells were initially selected by FACS analysis and sorting using a MoFlo cytometer (Cytomation, Inc.).
Decitabine, a potent inhibitor of mammalian DNMT1, was used as a positive control. […] Cells were then seeded to 30% confluence (˜5000 cell/well) in a 96-well plate containing the test compounds, and grown for three days in at 37 ° C. in 5% CO2.
The plates were examined under a fluorescent microscope using a 450-490 excitation filter (13 filter cube, Leica, Deerfield Ill.). Wells were scored gl positive, g2 positive, or g3 if GFP was expressed in 10%, 30%, >75% of viable cells, respectively.
Table 1 provides the results of the test for decitabine and the test compounds as DNA methylation inhibitors. GFP50 is the concentration of an inhibitor at which the Green Fluorescent Protein (GFP) expression level is reduced from g3 to g1/2.

The nature of data set [2]: single dose pharmacokinetics in monkeys. Particulars: single dose 10 mg/kg.
The test system of data set [3] is murine mammary carcinoma cells TS/A. In words: anti-tumor effect in TS/A murine breast cancer model (Example 6). It is filed as in vivo, Balb/c mice. Conditions: day 26 vs control mice; SGI-110 3 mg/kg SQ QDx5 days 1-5; anti-CTLA-4 mAb 100 μg at days 8, 11, 14 where combined. As for the experimental part:
TS/A is a murine mammary carcinoma originated from a moderately differentiated, weakly immunogenic mammary adenocarcinoma spontaneously arising in a 20-mo-old female BALB/c mouse.
The anti-mouse CTLA-4 was the CTLA-4 mAb 9H10, obtained from BioXCell (West Lebanon, N.H., USA), dosed at 100 μg/mouse in 200 μl (ip).
Balb/c mice (6/group) were injected SQ in the flank region with murine mammary carcinoma cells TS/A (2×10^5).
Control mice were injected with diluent for reconstitution. The effectiveness and tolerability of treatments was evaluated by tumor volume and body weight measurements, respectively.

A short description of data set [4]: stability in solvent formulations by HPLC. It is filed as physicochemical. As for the experimental part:
The stability of a compound of the invention in various formulations under various storage conditions was investigated. Stability was determined by HPLC at the designated time intervals.

A short description of a further data set: solubility. It is filed as physicochemical. An excerpt:
The good chemical stability taken together with the excellent solubility identified the glycol/glycerin/ethanol (65:25:10) system as a formulation for use in animal experiments.

A further data set has as its system LINE-1 DNA methylation. In words: LINE-1 DNA methylation in blood samples. Conditions: monkey blood samples; repeat dose 3 mg/kg; until day 22; p<0.05. It is filed as in vivo, cynomolgus monkeys. As for the experimental part:
FIG. 3 illustrates the decrease in LINE1 methylation levels observed in blood samples drawn from cynomolgus monkeys on various days (D) after pretest.
In a repeat dose study, monkeys were dosed 3× weekly subcutaneously (3 mg/kg). […] (FIGS. 1 and 2.) Pharmacodynamic properties (not shown) were monitored and were acceptable. Blood samples were drawn periodically to assay LINE-1 DNA methylation.

As for `Nc1ncn([C@H]2CC(OP(=O)(O)OC[C@H]3O[C@@H](n4cnc5c(=O)[nH]c(N)nc54)CC3O)[C@@H](CO)O2)c(=O)n1` (stereo partly shown), the EC50 in data set [1] came out at 400 nM.
On the same count and under the same terms, the value for `Nc1ncn([C@H]2CC(O)[C@@H](COP(=O)(O)OC3C[C@H](n4cnc5c(=O)[nH]c(N)nc54)O[C@@H]3CO)O2)c(=O)n1` (stereo partly shown) was 700 nM.
Usually AUC stands for concentration integrated over time. Usually Cmax stands for the maximum level reached in the sampled fluid or tissue. As for `Nc1ncn([C@H]2C[C@H](O)[C@@H](CO)O2)c(=O)n1` [Decitabine, 5-aza-2′-deoxycytidine], the EC50 in data set [1] amounted to 500 nM. In data set [2], this molecule displayed an AUC of 340 ng·h/mL and a Cmax of 160 ng/mL.
Broadly, the solubility is the dissolved amount per volume that the medium holds. `Nc1ncn([C@H]2C[C@H](OP(=O)(O)OC[C@H]3O[C@@H](n4cnc5c(=O)[nH]c(N)nc54)C[C@@H]3O)[C@@H](CO)O2)c(=O)n1` [SGI-110]: the tumor growth inhibition in data set [3] amounted to 62.9%. For the same molecule, the “% decomposition per hour” value in data set [4] (DMSO/water (1:1, w/w), 25° C./60% relative humidity) is listed as 0.72; in data set [4] (DMSO/water (3:1, w/w), 25° C./60% relative humidity) it was 0.10; in data set [4] (Propylene Glycol/Glycerin/Ethanol (65:25:10, w/w/w), 2-8° C.) it was 0.00032; in data set [4] (Propylene Glycol/Glycerin/Ethanol (65:25:10, w/w/w), 25° C./60% relative humidity), 0.013; in data set [4] (Propylene glycol/Glycerin (70:30, v/v), room temperature) it was 0.021; in data set [4] (water, pH 7.0, 2-8° C.), 0.14. Further, the “% decomposition per hour” value in data set [4] (water, pH 7.0, room temperature) was 1.1. Moreover, the Percent compound detected was 90.1% in data set [4] (DMSO/water (1:1, w/w), 25° C./60% relative humidity, 5 hours); 93.7% in data set [4] (DMSO/water (1:1, w/w), 25° C./60% relative humidity, time point 0); 94.2% in data set [4] (DMSO/water (3:1, w/w), 25° C./60% relative humidity, 24 hours); 96.6% in data set [4] (DMSO/water (3:1, w/w), 25° C./60% relative humidity, time point 0); 95.1% in data set [4] (Propylene Glycol/Glycerin/Ethanol (65:25:10, w/w/w), 2-8° C., 3 months); 95.8% in data set [4] (Propylene Glycol/Glycerin/Ethanol (65:25:10, w/w/w), 2-8° C., time point 0). The Percent compound detected turned out to be 67.6% in data set [4] (Propylene Glycol/Glycerin/Ethanol (65:25:10, w/w/w), 25° C./60% relative humidity, 3 months); 95.8% in data set [4] (Propylene Glycol/Glycerin/Ethanol (65:25:10, w/w/w), 25° C./60% relative humidity, time point 0); 96.3% in data set [4] (Propylene glycol/Glycerin (70:30, v/v), room temperature, 24 hours); 96.8% in data set [4] (Propylene glycol/Glycerin (70:30, v/v), room temperature, time point 0); 95.1% in data set [4] (water, pH 7.0, 2-8° C., 5 hours); 95.8% in data set [4] (water, pH 7.0, 2-8° C., time point 0). Further, the Percent compound detected was found to be 90.4% in data set [4] (water, pH 7.0, room temperature, 5 hours) and 95.8% in data set [4] (water, pH 7.0, room temperature, time point 0). Also, the “stability in anhydrous DMSO” value in data set [4] (anhydrous DMSO) is “stable”. Besides, the improvement in stability in data set [4] (combined effects of cooling plus addition of ethanol to the propylene glycol/glycerin system) is recorded as 66 fold; in data set [4] (propylene glycol/glycerin/ethanol (65:25:10), changing from warmer to colder storage conditions), 40 fold. In addition, the exposure (AUC) in data set [2] was 1,469 ng·hr/mL. The solubility was 130 to 150 mg/mL (≈ 233 to 269 mM) in “solubility” (propylene glycol/glycerin/ethanol (65:25:10), organic solvent or mixture, read-out: maximum solubility) and 20 mg/mL (≈ 35.9 mM) in “solubility” (water, aqueous, read-out: aqueous solubility). Further, the “LINE-1 DNA methylation vs level prior to initial dosing” value in the data set with LINE-1 DNA methylation was “Decreases”.
